Data set [1] in a line: Half life in mouse C57BL/6 plasma at 20 mg/kg,ip by LC-MS/MS analysis. It is filed as ADME, organism-based. The note with it: C57BL/6, mouse.
Data set [2] is described as follows: Ratio of drug level in brain to plasma in C57BL/6 mouse at 20 mg/kg, ip by LC-MS/MS analysis. It is filed as ADME, organism-based. The note with it: read-out: BPR.
Data set [3] is described as follows: Ratio of drug level in brain to plasma in pilocarpine-induced Sprague-Dawley rat at 25 mg/kg, ip after 6 hrs by LC-MS/MS analysis.
For data set [4], the target named is T1, Prostaglandin E2 receptor EP2 subtype (Homo sapiens, UniProt P43116). Put plainly: Binding affinity to human EP2 receptor expressed in C6 cells assessed as binding constant at 10 mins by TR-FRET cAMP functional assay. The note with it: filed as antagonist. It is filed as cell-based. (In general: In TR-FRET formats the signal depends on donor and acceptor labels being close together.)

The target of data set [5] is T2, Prostaglandin D2 receptor (Homo sapiens, UniProt Q13258).
T2 sequence (Q13258 whole entry): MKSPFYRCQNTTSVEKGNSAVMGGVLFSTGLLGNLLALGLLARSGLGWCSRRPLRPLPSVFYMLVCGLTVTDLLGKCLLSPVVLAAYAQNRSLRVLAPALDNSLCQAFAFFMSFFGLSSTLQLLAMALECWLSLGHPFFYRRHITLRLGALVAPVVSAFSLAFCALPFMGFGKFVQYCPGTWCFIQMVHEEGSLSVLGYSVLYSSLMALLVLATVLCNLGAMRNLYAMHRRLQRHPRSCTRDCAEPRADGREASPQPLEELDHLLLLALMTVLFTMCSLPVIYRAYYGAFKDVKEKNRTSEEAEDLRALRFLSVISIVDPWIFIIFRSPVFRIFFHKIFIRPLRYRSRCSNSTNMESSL
Put plainly: Binding affinity to DP1 receptor in human mast cell assessed as inhibition constant. It is filed as cell-based.

The target of data set [6] is T1, Prostaglandin E2 receptor EP2 subtype. Put plainly: Binding affinity to EP2 receptor in human mast cell assessed as inhibition constant. It is filed as cell-based.
Data set [7] addresses T3, Prostaglandin E2 receptor EP4 subtype (Homo sapiens, UniProt P35408). The data set is described as follows: Binding affinity to EP4 receptor in human mast cell assessed as inhibition constant. It is filed as cell-based.
In data set [8] the target is T1, Prostaglandin E2 receptor EP2 subtype. The data set is described as follows: Potency index, ratio of PF-0418948 Ki to test compound Ki for binding affinity to human EP2.
Data set [9] has as its target T4, Prostaglandin E2 receptor EP3 subtype (Homo sapiens, UniProt P43115).
T4 sequence (P43115 whole entry): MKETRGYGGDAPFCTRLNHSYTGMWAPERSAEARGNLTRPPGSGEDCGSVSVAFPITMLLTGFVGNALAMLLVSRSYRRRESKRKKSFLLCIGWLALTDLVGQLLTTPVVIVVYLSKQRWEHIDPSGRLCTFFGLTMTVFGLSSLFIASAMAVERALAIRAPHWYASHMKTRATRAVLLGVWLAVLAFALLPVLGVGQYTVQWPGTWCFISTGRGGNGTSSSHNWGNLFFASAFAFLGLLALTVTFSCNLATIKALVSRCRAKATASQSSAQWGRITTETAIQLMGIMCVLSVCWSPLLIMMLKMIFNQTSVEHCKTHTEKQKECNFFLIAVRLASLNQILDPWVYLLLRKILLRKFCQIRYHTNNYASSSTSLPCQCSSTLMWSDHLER
Put plainly: Binding affinity to EP3 receptor (unknown origin) assessed as inhibition constant.

Data set [10] has as its target T5, Prostaglandin E2 receptor EP1 subtype (Homo sapiens, UniProt P34995).
T5 sequence (P34995 whole entry): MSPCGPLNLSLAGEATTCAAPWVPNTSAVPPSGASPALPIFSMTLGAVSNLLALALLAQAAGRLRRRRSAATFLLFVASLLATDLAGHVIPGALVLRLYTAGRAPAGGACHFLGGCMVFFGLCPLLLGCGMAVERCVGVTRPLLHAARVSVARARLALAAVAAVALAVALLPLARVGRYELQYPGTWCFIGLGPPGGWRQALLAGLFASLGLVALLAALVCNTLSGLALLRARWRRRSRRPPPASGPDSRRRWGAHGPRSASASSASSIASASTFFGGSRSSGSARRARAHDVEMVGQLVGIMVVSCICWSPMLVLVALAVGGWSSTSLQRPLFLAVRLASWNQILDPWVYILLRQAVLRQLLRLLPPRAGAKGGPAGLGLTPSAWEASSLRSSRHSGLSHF
The data set is described as follows: Binding affinity to EP1 receptor (unknown origin) assessed as inhibition constant.

For data set [11], the target named is T3, Prostaglandin E2 receptor EP4 subtype. The data set is described as follows: Binding affinity to human EP4 receptor expressed in CHO cells assessed as inhibition constant. It is filed as cell-based.
Data set [12] addresses T2, Prostaglandin D2 receptor. Put plainly: Binding affinity to human DP1 receptor expressed in CHO cells assessed as inhibition constant. It is filed as cell-based.
A short description of data set [13]: Ratio of drug level in brain to plasma in C57BL/6 mouse at 3 mg/kg, ip by LC-MS/MS analysis. The note with it: read-out: BPR. It is filed as ADME, organism-based.
A short description of data set [14]: Solubility of the compound. It is filed as ADME.
Data set [15] is described as follows: Half life in C57BL/6 mouse at 10 mg/kg, po by LC-MS/MS analysis. It is filed as ADME, organism-based. The note with it: in vivo.
Data set [16] addresses T1, Prostaglandin E2 receptor EP2 subtype. The data set is described as follows: Binding affinity to human EP2 receptor expressed in rat C6 cells assessed as binding constant. It is filed as cell-based. The note with it: filed as antagonist.
Data set [17] can be described thus: Aqueous solubility of compound in PBS buffer at pH 7.4 by nephelometric analysis. It is filed as ADME.
Data set [18] can be described thus: Ratio of drug level in brain to plasma in C57BL/6 mouse at 10 mg/kg, po by LC-MS/MS analysis. It is filed as ADME, organism-based. The note with it: read-out: BPR.
Data set [19] has as its target T6, Prostaglandin D2 receptor (Homo sapiens) (UniProt Q13258).
T6 sequence (whole entry): T2 sequence (Q13258 whole entry)
The data set is described as follows: Binding affinity to human DP1 receptor expressed in rat C6 cells assessed as binding constant. It is filed as cell-based. The conditions noted are these: filed as antagonist.

In data set [20] the target is T3, Prostaglandin E2 receptor EP4 subtype. The data set is described as follows: Binding affinity to EP4 receptor (unknown origin) assessed as binding constant. The note with it: filed as antagonist.

pKi: −log10 of the molar value. In brackets after ≈: the same amount, converted by molar mass.

The record followed here is ChEMBL document CHEMBL5223088, “EP2 Antagonists (2011-2021): A Decade's Journey from Discovery to Therapeutics” (J Med Chem, 2021).

T1 sequence (P43116 whole entry): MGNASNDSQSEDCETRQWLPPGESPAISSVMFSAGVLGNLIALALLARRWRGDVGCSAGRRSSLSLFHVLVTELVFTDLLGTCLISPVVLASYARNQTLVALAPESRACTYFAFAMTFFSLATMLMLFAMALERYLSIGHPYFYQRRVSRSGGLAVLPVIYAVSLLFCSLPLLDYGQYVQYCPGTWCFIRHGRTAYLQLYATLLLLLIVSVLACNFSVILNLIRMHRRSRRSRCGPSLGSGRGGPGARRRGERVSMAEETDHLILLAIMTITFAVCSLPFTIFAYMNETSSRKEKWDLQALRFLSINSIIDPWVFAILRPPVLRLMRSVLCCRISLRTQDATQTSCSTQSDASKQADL
T3 sequence (P35408 whole entry): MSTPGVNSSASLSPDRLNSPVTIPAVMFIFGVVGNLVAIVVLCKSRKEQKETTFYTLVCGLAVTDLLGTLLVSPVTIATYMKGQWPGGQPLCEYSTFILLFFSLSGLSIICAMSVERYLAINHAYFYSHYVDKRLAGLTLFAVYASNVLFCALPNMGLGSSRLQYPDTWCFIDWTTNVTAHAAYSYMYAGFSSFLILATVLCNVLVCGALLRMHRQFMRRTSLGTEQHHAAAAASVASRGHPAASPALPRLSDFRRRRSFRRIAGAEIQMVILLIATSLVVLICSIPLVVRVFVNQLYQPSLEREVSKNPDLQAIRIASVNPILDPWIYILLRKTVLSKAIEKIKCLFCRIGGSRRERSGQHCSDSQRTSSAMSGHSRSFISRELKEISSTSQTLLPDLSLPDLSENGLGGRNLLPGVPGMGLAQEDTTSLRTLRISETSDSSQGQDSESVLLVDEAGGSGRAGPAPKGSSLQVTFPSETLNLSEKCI

The term half-life denotes the time needed for the level to fall by half in the phase considered. As a reminder, the Kb is the equilibrium dissociation constant of an antagonist, usually derived from a functional assay. In turn, `Cc1[nH]c2ccccc2c1CCNC(=O)c1ccc(-c2c[nH]cn2)cc1` had a half-life in data set [1] of 2.8 h. In data set [2], the Kp came to 0.02. For the same compound, in data set [3], the Kp at 6 h is 0.03. The Kb in data set [4] was 0.0132 µM.
The pKi is the Ki on a negative log10 scale, so that one unit is a factor of ten. As to `COc1ccc(C(=O)N2CCC(COc3ccc(-c4ccc(C#N)cc4)cc3)(C(=O)O)C2)cc1` (stereo not given), the results for the pKi in data set [5], in [6] and in data set [7] were 5.92, 9.20 and 4.79, respectively. In data set [8], the Ratio Ki is 10.
Take `COc1ccc2cc(OCC3(C(=O)O)CN(C(=O)c4ccc(F)cc4)C3)ccc2c1` [PF-04418948]: the negative logarithm of the Ki (pKi) in [9], in data set [10], in data set [11] and in data set [12] was less than 5.00 in each case.
For orientation: solubility means how much of the substance goes into solution per volume. The low end stands for little dissolved substance, the high end for much dissolved substance. Take `COc1cc(/C=C/C(=O)NCCn2c(C)cc3ccccc32)cc(OC)c1OC`: the Kp in data set [13] came to 0.3. The compound also had a solubility in data set [14] of 45 µM (≈ 17.8 µg/mL).
Usually solubility (kinetic) stands for the concentration staying in solution when a stock, usually in DMSO, is diluted into the medium. Compound `Cc1cc2ccccc2n1CCNC(=O)c1ccc(-c2nnn[nH]2)cc1` gave a half-life in data set [15] of 10.5 h. Moreover, the figures for the Kb in [16], in data set [19] and in data set [20] were 0.0485 µM, 18 µM and 15 µM, respectively. For the same compound, the kinetic solubility in data set [17] was 500 µM (≈ 173 µg/mL). In addition, the Kp in data set [18] was 0.02.
